Data from the supplement of paper PMC10307832.

What was measured:
Test in all cases: relative viability (nuclei count vs DMSO), 5 days (fraction); higher = more cells survive
[1] = compound: COc1cc2nc(N3CCCN(C)CC3)nc(NC3CCN(Cc4ccccc4)CC3)c2cc1OC + Cc1nc(NC(=O)N2CCC[C@H]2C(N)=O)sc1-c1ccnc(C(C)(C)C(F)(F)F)c1 [Alpelisib] (partner 2 µM)
Outline: (§1)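 Nuclei were stained with Hoechst during a one-step fixation (final 0.05% Triton X-100, 1% formaldehyde, 1 ug/ml Hoechst) carried out 5 days after dosing, then counted on 4× images. The cells, lung cancer lines in 1536-well plates, had been dosed by pin tool the day after seeding with one drug alone or a fixed anchor-drug dose plus five library-drug doses (not always all listed) in √10 steps. Relative viability is the nuclei count in treated wells divided by that in vehicle wells, and each value is the median of duplicate plates.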

[2] = compound: COc1cc2nc(N3CCCN(C)CC3)nc(NC3CCN(Cc4ccccc4)CC3)c2cc1OC + Nc1ncn([C@H]2C[C@H](O)[C@@H](CO)O2)c(=O)n1 [Decitabine] (partner 2 µM)
Outline: as §1

AZD6482 + Lapatinib = compound: Cc1cc([C@@H](C)Nc2ccccc2C(=O)O)c2nc(N3CCOCC3)cc(=O)n2c1 [AZD6482] + CS(=O)(=O)CCNCc1ccc(-c2ccc3ncnc(Nc4ccc(OCc5cccc(F)c5)c(Cl)c4)c3c2)o1 [Lapatinib] (partner 2 µM)
Outline: as §1

AZD6482 + Alpelisib = compound: Cc1cc([C@@H](C)Nc2ccccc2C(=O)O)c2nc(N3CCOCC3)cc(=O)n2c1 [AZD6482] + Cc1nc(NC(=O)N2CCC[C@H]2C(N)=O)sc1-c1ccnc(C(C)(C)C(F)(F)F)c1 [Alpelisib] (partner 2 µM)
Outline: as §1

Cell Line | relative viability ([1]; first compound 0.2 µM) | relative viability ([1]; first compound 0.6325 µM) | relative viability ([1]; first compound 2 µM) | relative viability ([1]; first compound 6.325 µM) | relative viability ([2]; first compound 0.2 µM) | relative viability ([2]; first compound 0.6325 µM) | relative viability ([2]; first compound 2 µM) | relative viability ([2]; first compound 6.325 µM) | relative viability (AZD6482 + Lapatinib; first compound 0.08 µM) | relative viability (AZD6482 + Lapatinib; first compound 0.253 µM) | relative viability (AZD6482 + Lapatinib; first compound 0.8 µM) | relative viability (AZD6482 + Lapatinib; first compound 2.53 µM) | relative viability (AZD6482 + Lapatinib; first compound 8 µM) | relative viability (AZD6482 + Alpelisib; first compound 0.08 µM) | relative viability (AZD6482 + Alpelisib; first compound 0.8 µM) | relative viability (AZD6482 + Alpelisib; first compound 2.53 µM) | relative viability (AZD6482 + Alpelisib; first compound 8 µM) | relative viability (AZD6482 + Alpelisib; first compound 0.253 µM)
LK-2 | 1.02 | 1.05 | 1.26 | 1.01 | 0.276 | 0.244 | 0.359 | 0.326 | 1.13 | 0.645 | 0.959 | 0.767 | 0.815 | 1.07 | 1.86 | 0.972 | 1.21 | 
LOU-NH91 | 0.736 | 0.755 | 0.588 | 0.642 | 0.779 | 0.845 | 0.853 | 0.808 | 0.626 | 0.752 | 0.681 | 0.501 | 0.494 | 0.547 | 0.647 | 0.525 | 0.639 | 0.676
LU99A | 0.539 | 0.458 | 0.454 | 0.479 | 0.863 | 0.857 | 0.893 | 0.811 | 0.972 | 0.881 | 0.938 | 0.751 | 0.866 | 0.452 | 0.619 | 0.372 | 0.421 | 0.441
LXF-289 | 1.04 | 0.964 | 1.06 | 0.986 | 0.396 | 0.365 | 0.418 | 0.393 | 0.924 | 0.913 | 0.892 | 0.821 | 0.937 | 0.946 | 0.966 | 0.798 | 0.706 | 1.01
NCI-H23 | 0.623 | 0.693 | 0.775 | 0.675 | 0.307 | 0.334 | 0.316 | 0.322 | 1.03 | 0.848 | 1.32 | 0.644 | 0.855 | 0.642 | 0.713 | 0.374 | 0.597 | 0.534
NCI-H322M | 0.741 | 0.814 | 0.781 | 0.68 | 0.717 | 0.708 | 0.768 | 0.708 | 0.53 | 0.441 | 0.561 | 0.357 | 0.495 | 0.574 | 0.573 | 0.474 | 0.48 | 0.553
NCI-H358 | 0.935 | 0.888 | 1.01 | 0.533 | 0.203 | 0.2 | 0.2 | 0.158 | 0.443 | 0.417 | 0.386 | 0.258 | 0.365 | 0.657 | 0.705 | 0.39 | 0.833 | 0.978
NCI-H460 | 0.481 | 0.483 | 0.42 | 0.242 | 0.484 | 0.449 | 0.431 | 0.389 | 0.869 | 0.796 | 1.17 | 0.585 | 0.758 | 0.206 | 0.263 | 0.13 | 0.18 | 0.352
NCI-H520 | 0.947 | 0.98 | 0.867 | 0.452 | 0.495 | 0.454 | 0.534 | 0.214 | 0.644 | 0.397 | 0.619 |  | 0.263 | 0.381 | 0.263 |  | 0.353 | 0.287
